Assay results taken from patent publication US20230002377A1, “THERAPEUTIC COMBINATIONS OF DRUGS AND METHODS OF USING THEM” (HARMONY BIOSCIENCES, LLC, priority 2020, published 2023).

How the values were obtained:
[1] = biological target: Transporter, Norepinephrine (NET) (Homo sapiens, UniProt P23975); test: NET radioligand binding ([125I] RTI-55), Eurofins; settings: for inhibition at 0.01 µM: read-out: NET, % inhibition, 10 nM compound; for inhibition at 0.1 µM: read-out: NET, % inhibition, 100 nM compound
Experimental: Source: Human recombinant MDCK cells;
Incubation Time/Temp: 3 hours @ 4° C.;
(§2) Incubation Buffer: 50 mM Tris-HCl, pH 7.4, 100 mM NaCl, 1 μM Leupeptin, 10 μM PMSF;
Non-Specific Ligand: 10.0 μM Desipramine;
(§3) Quantitation Method: Radioligand Binding;

[2] = biological target: Transporter, Dopamine (DAT) (Homo sapiens, UniProt Q01959); test: DAT radioligand binding ([125I] RTI-55), Eurofins; settings: read-out: DAT, % inhibition, 100 nM compound
Experimental: Source: Human recombinant CHO—S cells;
Incubation Time/Temp: 3 hours @ 4° C.;
as §2
Non-Specific Ligand: 10.0 μM Nomifensine;
Specific Binding: 90% (Historical Values);
as §3

[3] = Metabolite level of Formula II in phase I clinical trial; assay type: in vivo, human; settings: healthy volunteers
Source text: (§1) By substituting the hydrogens with deuterium on the carbon(s) adjacent to the nitrogen which is acetylated (see for example, Examples 5 to 7), acetylation process can be slowed down to reduce the formation of this metabolite.

MCHR1 = MCHR1 (Homo sapiens, UniProt Q99705); test: Contribution of N-acetyl metabolite to MCHR1 antagonism
Source text: as §1

DAT = biological target: T1, DAT (Homo sapiens, UniProt Q01959); settings: approved monoamine reuptake inhibitors at efficacious doses, cited from earlier work
T1 construct: host or cells: living brain (PET)

NET = NET (Homo sapiens, UniProt P23975); settings: at efficacious doses; cited from earlier work
PWS patients = settings: standard mg/day dosing, cited from earlier work

Transporter, Norepinephrine (NET), sequence (P23975 whole entry): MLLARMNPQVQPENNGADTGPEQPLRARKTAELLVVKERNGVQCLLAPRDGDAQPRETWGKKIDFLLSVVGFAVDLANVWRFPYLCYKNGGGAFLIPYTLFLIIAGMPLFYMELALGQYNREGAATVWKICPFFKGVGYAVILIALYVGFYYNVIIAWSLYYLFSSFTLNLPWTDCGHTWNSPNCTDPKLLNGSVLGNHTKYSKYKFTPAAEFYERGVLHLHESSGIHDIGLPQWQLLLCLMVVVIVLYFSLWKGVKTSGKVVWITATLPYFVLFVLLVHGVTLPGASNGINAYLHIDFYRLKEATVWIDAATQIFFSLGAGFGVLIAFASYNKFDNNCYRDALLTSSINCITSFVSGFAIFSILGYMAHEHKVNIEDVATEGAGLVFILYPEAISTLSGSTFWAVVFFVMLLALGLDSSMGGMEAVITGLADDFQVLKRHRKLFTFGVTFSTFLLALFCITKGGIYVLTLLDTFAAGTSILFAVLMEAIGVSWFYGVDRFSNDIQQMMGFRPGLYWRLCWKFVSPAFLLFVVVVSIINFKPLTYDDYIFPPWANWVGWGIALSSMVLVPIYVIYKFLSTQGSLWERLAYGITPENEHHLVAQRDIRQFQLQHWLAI
T1 sequence (Q01959 whole entry): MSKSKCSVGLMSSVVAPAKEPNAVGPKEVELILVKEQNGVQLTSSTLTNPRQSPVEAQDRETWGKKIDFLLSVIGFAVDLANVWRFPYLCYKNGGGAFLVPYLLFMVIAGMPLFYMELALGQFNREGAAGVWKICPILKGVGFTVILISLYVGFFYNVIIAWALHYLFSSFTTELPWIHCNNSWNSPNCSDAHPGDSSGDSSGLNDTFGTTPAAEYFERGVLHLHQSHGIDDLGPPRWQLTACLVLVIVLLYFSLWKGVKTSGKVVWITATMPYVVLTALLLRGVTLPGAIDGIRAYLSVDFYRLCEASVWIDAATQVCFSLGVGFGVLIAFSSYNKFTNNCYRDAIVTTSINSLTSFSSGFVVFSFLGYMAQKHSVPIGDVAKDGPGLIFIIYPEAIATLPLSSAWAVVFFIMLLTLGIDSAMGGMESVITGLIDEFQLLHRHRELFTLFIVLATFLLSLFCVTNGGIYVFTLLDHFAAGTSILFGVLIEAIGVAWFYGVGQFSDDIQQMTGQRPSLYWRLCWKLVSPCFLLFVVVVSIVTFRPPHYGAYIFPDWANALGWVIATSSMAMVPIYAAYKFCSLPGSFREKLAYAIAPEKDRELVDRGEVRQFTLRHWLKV
Transporter, Dopamine (DAT), sequence (Q01959 whole entry): as above
NET, sequence (P23975 whole entry): as the sequence (P23975 whole entry) above
MCHR1, sequence (Q99705 whole entry, species assumed): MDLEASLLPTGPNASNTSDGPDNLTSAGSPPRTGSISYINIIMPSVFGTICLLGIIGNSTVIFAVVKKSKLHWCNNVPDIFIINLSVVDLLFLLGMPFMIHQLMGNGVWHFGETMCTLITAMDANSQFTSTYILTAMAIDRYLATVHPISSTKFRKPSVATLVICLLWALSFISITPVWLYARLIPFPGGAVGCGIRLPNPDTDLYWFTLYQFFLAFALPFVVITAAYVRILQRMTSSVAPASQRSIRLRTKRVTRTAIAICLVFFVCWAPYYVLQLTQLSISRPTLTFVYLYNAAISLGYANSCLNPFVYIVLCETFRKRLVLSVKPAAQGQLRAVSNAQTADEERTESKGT

## [2H]C1([2H])NC([2H])([2H])C([2H])(c2ccc(Cl)c(Cl)c2)c2ccc(-c3ccc4ncnn4c3)cc21 (single isomer, unassigned) [Compound 8A, 7-([1,2,4]triazolo[1,5-a]pyridin-6-yl)-4-(3,4-dichlorophenyl)-1,2,3,4-tetrahydroisoquinoline-1,1,3,3,4-d5]
[1]
  inhibition at 0.01 µM: 29%
  inhibition at 0.1 µM: 86%
[2]
  inhibition at 0.1 µM: 93%

## [2H]C1([2H])NCC(c2ccc(Cl)c(Cl)c2)c2ccc(-c3ccc4ncnn4c3)cc21 (single isomer, unassigned) [Compound 12A, 7-([1,2,4]triazolo[1,5-a]pyridin-6-yl)-4-(3,4-dichlorophenyl)-1,2,3,4-tetrahydroisoquinoline-1,1-d2]
[1]
  inhibition at 0.01 µM: 34%
  inhibition at 0.1 µM: 79%

## [2H]C1([2H])NCc2cc(-c3ccc4ncnn4c3)ccc2C1([2H])c1ccc(Cl)c(Cl)c1 (single isomer, unassigned) [Compound 16B, 7-([1,2,4]triazolo[1,5-a]pyridin-6-yl)-4-(3,4-dichlorophenyl)-1,2,3,4-tetrahydroisoquinoline-3,3,4-d3]
[1]
  inhibition at 0.01 µM: 49%
  inhibition at 0.1 µM: 72%
[2]
  inhibition at 0.1 µM: 76%

## CC(=O)N1CCc2c(c3ccc(-n4ccc(OCc5ccc(F)cn5)cc4=O)cc3n2C)C1 [1-(2-acetyl-5-methyl-2,3,4,5-tetrahydro-1H-pyrido[4,3-b]indol-7-yl)-4-((5-fluoropyridin-2-yl)methoxy)pyridin-2(1H)-one]
[3]
  amount of metabolite comparing to parent compound Formula II: very significant
MCHR1
  contribution to the pharmacology of MCHR1 antagonism: does not contribute to the pharmacology of MCHR1 antagonism

## CC(NC(C)(C)C)C(=O)c1cccc(Cl)c1 (stereo not shown) [Bupropion, bupropion]
DAT; lowest reported
  Lowest Occupancy DAT: 14% (Bupropion)

## COC(=O)C(c1ccccc1)C1CCCCN1 (stereo not shown) [Methylphenidate, methylphenidate]
DAT; highest reported
  Highest Occupancy DAT: 74%

## COc1ccc(C(CN(C)C)C2(O)CCCCC2)cc1 (stereo not shown) [Venlafaxine, venlafaxine]
NET
  NET occupancy: 8-61%

## CCOC[C@@H]1[C@@H](c2ccc(Cl)c(Cl)c2)C[C@@H]2CC[C@H]1N2C [tesofensine]
PWS patients; PWS patients
  hyperphagia in patients with the appropriate plasma drug level: hyperphagia controlled completely
  patients with plasma drug levels exceeding the safety levels who discontinued the treatment due to adverse events: 2/3
PWS patients; lowered dose
  efficacy after lowering the dosing for all patients: no efficacy
